Test results: EP4458352A1, “EICOSAPENTAENOIC ACID ESTER DERIVATIVES FOR THE TREATMENT OF OBESITY” (Technische Universität Dresden, priority 2023, dated 2024)

How the values were obtained:
[1] = tested on: primary adrenocortical cells; assay: Seahorse OCR measurement in primary adrenocortical cells treated with SC-26196; type: cell-based, WT C57BL/6J mice; details: SC-26196 10 µM, 18 h vs DMSO; n=4
Description: Primary adrenocortical cells were plated in 0.2 % gelatin-precoated XF96 cell culture microplate (Agilent) (8*10^4 cells/well) and treated for 18 h with DMSO or SC-26196 (10 µM). OCR was measured with a Seahorse XF96 Analyzer (Agilent Technologies). The experimental medium used was XF Base Medium supplemented with glucose (10 mM), pyruvate (1 mM) and glutamine (2 mM).

[2] = tested on: adrenal glands of mice fed a HFD; assay: FFA measurement (HPLC-MS) in adrenal glands of HFD mice with or without SC-26196; type: in vivo, WT C57BL/6J mice; details: HFD with vs without SC-26196; n=8-10 mice per group
Description: Six weeks-old male WT C57BL/6J mice were fed for 20 weeks a LFD (D12450B, Research Diets, NJ, USA) or a HFD (D12492, Research Diets, NJ, USA). In some experiments, WT C57BL/6J mice were fed for 8 weeks a HFD and for another 8 weeks a HFD supplemented with SC-26196 (Biorbyt Ltd). SC-26196 was mixed in the HFD at a concentration of 625 mg/kg of diet corresponding to approx. 100 mg/kg of animal weight. In other experiments WT mice were fed for 10 weeks a HFD and for another 10 weeks a HFD supplemented with icosapent ethyl (Vascepa). The content of Vascepa capsules was mixed by Research Diets with the diet at a concentration of 1.125 g/kg icosapent ethyl (corresponding to approx. 180 mg/kg of animal weight). Mice were weighed every week. Glucose and insulin tolerance tests were performed as previously described (20, 21). Three to five mg of hair (2-3 mm close to the skin on the back of the mice) were cut while gently holding the mice without anaesthesia.
Frozen adrenal glands were homogenized in 200 µL PBS-buffer. Lipids were extracted from adrenal lysates or supernatants in chloroform/methanol (Folch's protocol). The extract was evaporated to dryness under stream of nitrogen at 40 °C. The residue was dissolved in 100 µL ethanol. For FFA 50 µL were used. […] The quantification was performed with individual calibration curves using deuterated standards (Cayman Chemical, Ann Arbor, MI).

N#CC(CCCN1CCN(/N=C/c2cccnc2)CC1)(c1ccccc1)c1ccccc1 [SC-26196]
oxygen consumption rate (OCR) [1]: decreased
free PUFA, including ARA, levels in the adrenal glands [2]: reduced
